Tested on: durch Pentagastrin stimulierte Säuresekretion des perfundierten Rattenmagens
Assay: Inhibition of pentagastrin-stimulated acid secretion in the perfused rat stomach in vivo
Parameters: species or system Ratte
Source text: Prüfung der sekretionshemmenden Wirkung am perfundierten Rattenmagen
In der folgenden Tabelle 2 ist der Einfluß der erfindungsgemäßen Verbindungen nach intravenöser Gabe auf die durch Pentagastrin stimulierte Säuresekretion des perfundierten Rattenmagens in vivo dargestellt.
Narkotisierten Ratten (CD-Ratte, weiblich, 200-250 g; 1,5 g/kg i.m. Urethan) wurde nach Tracheotomie das Abdomen durch einen medianen Oberbauchschnitt er-öffnet und ein PVC-Katheter transoral im Ösophagus sowie ein weiterer via Pylorus derart fixiert, daß die Schlauchenden eben noch in das Magenlumen hineinragten. Der aus dem Pylorus führende Katheter führte über eine seitliche Öffnung in der rechten Bauchwand nach außen.
Nach gründlicher Spülung (ca.50-100 ml) wurde der Magen mit 37 °C warmer physiologischer NaCl-Lösung kontinuierlich durchströmt (0,5 ml/min, pH 6,8-6,9; Braun-Unita I). In dem jeweils im 15 min-Abstand aufgefangenen (25 ml Meßzylinder) Effluat wurde der pH-Wert (pH-Meter 632, Glaselektrode EA 147; ⌀ = 5 mm, Metrohm) sowie durch Titration mit einer frisch zubereiteten 0,01 N NaOH bis pH 7 (Dosimat 655 Metrohm) die sezernierte HCl bestimmt.
Die Stimulation der Magensekretion erfolgte durch Dauerinfusion von 1µg/kg (=1,65 ml/h) i.v. Pentagastrin (V. fem. sin.) ca 30 min nach Operationsende (d.h. nach Bestimmung von 2 Vorfraktionen). […]

Structure (SMILES) | ED50 (Rattus norvegicus, iv; i.v.; interpolated dose that causes a maximal inhibition of HCl secretion by 50 %; head says 'ca.'; read-out: Maximale Hemmung der Säureausscheidung ca. ED50 +) (µmol/kg) i.v.) [µmol/kg] | Maximale Hemmung der Säureausscheidung ca. ED50 +) (µmol/kg) i.v. (i.v., interpolated dose that causes a maximal inhibition of HCl secretion by 50 %, head says 'ca.')
COc1ccc(C(=O)O[C@@H]2Cc3ccccc3[C@H]2Oc2cccn3c(CO)c(C)nc23)cc1 (relative stereo) [Beispiel 2, 3-Hydroxymethyl-8-[trans-2-(4-methoxybenzoyloxy)-2,3-dihydro-1-indenyloxy]-2-methyl-imidazo[1,2-a]pyridin] | ~1.1 | –
COCC(=O)O[C@@H]1Cc2cc(F)ccc2[C@H]1Oc1cccn2c(CO)c(C)nc12 (relative stereo) [Beispiel 5, 8-(5-Fluor-trans-2-methoxyacetoxy-2,3-dihydro-1-indenyloxy)-3-hydroxymethyl-2-methyl-imidazo[1,2-a]pyridin] | – | ~0,8 µmol/kg
